Literature values as cited in patent publication US20190250088A1, “Methods and Apparatus for Predicting and Confirming Drug-Induced Thrombocytopenia Through Particle Detection with Dynamic Light Scattering” (LightIntegra Technology Inc., priority 2018, published 2019).

Settings: patients recently exposed to heparin; background statement

| Substance | HIT occurs in patients receiving the drug (incidence of heparin-induced thrombocytopenia) |
| --- | --- |
| low molecular weight heparin [low molecular weight heparin (LMWH)] | < 1% |
| unfractionated heparin [unfractionated heparin (UFH)] | up to 5% |
